# Test results reported in patent publication US5118681A (priority 1989, dated 1992).
# Read-outs that look alike come from different tables or passages of the source.
# How the values were obtained:
# [1] = system: Aureobasidium pullulans (A.p); assay: MIC, broth two-fold serial dilution (Table 3), A.p; type: cell-based; conditions: read-out: MIC A.p
# Source text: (§1) A minimum inhibitory concentration (MIC) value is obtained using a broth, two-fold serial dilution test performed as follows: A stock solution or dispersion of the test compound, typically at a concentration of 1%, is made in a 5:3:2 solvent solution of acetone, methanol, and water. A volume of the stock solution is dispensed into culture media to give an initial starting test concentration of 500 ppm compound.
# (§2) When the test is ready to be done, each vessel in the dilution series, except the first vessel, contains an equal volume of compound free broth. The first vessel contains twice the volume of broth with the starting concentration of test compound. One half of the broth from the first vessel is transferred to the second vessel. After being mixed, one half the resulting volume is removed from the second vessel and transferred to the third vessel. The entire cycle is repeated sufficiently to give a series of concentrations amounting to 500, 250, 125, 63, 31, 16, 8, and 4 ppm, respectively.
# (§3) Each vessel is then inoculated with a cell suspension of the appropriate test organism. Bacteria are grown in broth and fungi on agar slants for a time and at a temperature appropriate to the species being tested. At the end of the growth period, the broth is vortexed to disperse the cells. In the case of fungi, the spores are harvested by pipetting water onto the slant and dislodging the spores with a sterile loop. The cell/spore suspension is standardized by controlling incubation time, temperature, and the volume of the diluent. The suspension is then used to inoculate the vessels containing the broth compound. The vessels are then incubated at the appropriate temperature. After the incubation, the vessels are examined for growth/no growth. The minimum inhibitory concentration (MIC) is defined as the lowest concentration of compound that results in complete inhibition of growth of the test organism.
# Aureobasidium pullulans (A.p)
# [2] = system: Staphylococcus aureus (S.a); assay: MIC, broth two-fold serial dilution (Table 3), S.a; type: cell-based; conditions: read-out: MIC S.a
# Source text: as §1, §2, §3
# Staphylococcus aureus (S.a), gram positive
# A.n = assay: Minimum Inhibitory Concentration Test, alternate (Table 4), A.n; type: cell-based, Aspergillus niger; conditions: TSB, 72 hours; for MIC: Aspergillus niger
# In short: (§4)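 Compound in acetone was diluted into TSB and serially diluted 1:1 from 250 ppm down to 0.8 ppm, in duplicate. Plates were inoculated with diluted 24 h culture and incubated 3 days at 30° C; MIC recorded as lowest concentration with no growth.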
# [3] = system: Pseudoperonospora cubensis; assay: whole plant or invertebrate; type: in vivo
# Aspergillus niger (A.n) = assay: MIC, broth two-fold serial dilution (Table 3), A.n; type: cell-based; conditions: read-out: MIC A.n
# Source text: as §1, §2, §3
# ps.fl bacteria = assay: Speed of Kill (SOK) test, 4 h, synthetic hard water (Table 3); type: cell-based; conditions: Pseudomonas fluorescens, read-out: SOK (concentration at which compound killed >99.999% of the cells)
# Source text: The Speed of Kill (SOK) Test measures the loss of cell viability in an aqueous suspension of bacterial cells during a four hour period when these cells are contacted with a defined concentration of the test compound in synthetic hard water (SHW). A stock solution or dispersion of the test compound, typically at a concentration of 1%, is made in a 5:3:2 solvent solution of acetone, methanol, and water. The SHW is made by taking one liter of sterile deionized water and adding the following solutions to it:
# 1. 2 ml of a solution of 31.74 g of MgCl2 and 73.99 g of CaCl2 in 1000 ml of sterile distilled water which has been heat sterillized.
# 2. 4 ml of a solution of 56.03 g of NaHCO3 in 1000 ml of water which has been filter sterillized.
# The combined solution is then filter sterilized to yield the SHW. A volume of the stock solution is dispensed into the SHW to give an initial test compound starting concentration of 500 ppm.
# as §2, with “run,” for “done,”, “the SHW mixture with the test compound.” for “compound free broth.”, “SHW” for “broth”
# Each vessel is then inoculated with a cell suspension of the ps.fl bacteria. The bacteria were grown on a 1% agar slant tube and incubated for 18-24 hours at 30° C. Thereafter, the tube is washed with four ml of sterile water. This was is diluted to a density of 60 to 80 Nephlolmeter Turbidity Units (NTU). To 100 ml of the SHW containing the various concentrations of the test compound is added 0.75 ml of inoculum from the 60-80 NTU wash with good mixing. After 4 hours from the time of addition at 30° C., 5 μl of solution is transferred to 100 μl of a broth solution in order to recover any living cells. This mixture is incubated for 24 hours at 30° C. before noting the concentration in ppm at which each compound killed >99.999% of the cells in the SHW solution.
# [4] = system: Pseudomonas fluorescens (Ps.fl); assay: MIC, broth two-fold serial dilution (Table 3), Ps.fl; type: cell-based; conditions: read-out: MIC Ps.fl
# Source text: as §1, §2, §3
# Pseudomonas fluorescens (Ps.fl), gram negative
# Phytophthora infestans = assay: whole plant or invertebrate; type: in vivo; conditions: for pest or weed control at 200 ppm / pest or weed control at 300 ppm / pest or weed control at 100 ppm: Phytophthora infestans, in Solanum lycopersicum, 96 h, read-out: % control TLB
# [5] = system: Erysiphe graminis (f. sp. tritici); assay: whole plant or invertebrate; type: in vivo
# Pseudomonas fluorescens [6] = assay: Minimum Inhibitory Concentration Test, alternate (Table 4), Ps.fl; type: cell-based; conditions: TSB, 72 hours, 30° C; for MIC: Pseudomonas fluorescens
# In short: as §4
# Escherichia coli (E.c) = assay: MIC, broth two-fold serial dilution (Table 3), E.c; type: cell-based; conditions: read-out: MIC E.c
# Source text: as §1, §2, §3
# Escherichia coli (E.c), gram negative
# [7] = system: Puccinia recondita (f. sp. tritici Races PKB and PLD); assay: whole plant or invertebrate; type: in vivo
# Piricularia oryzae = assay: whole plant or invertebrate; type: in vivo
# [8] = system: Pseudomonas aerugenosa (Ps.ae); assay: MIC, broth two-fold serial dilution (Table 3), Ps.ae; type: cell-based; conditions: read-out: MIC Ps.ae
# Source text: as §1, §2, §3
# Pseudomonas aerugenosa (Ps.ae), gram negative
# [9] = system: Pellicularia filamentosa (f. sp. sasiki); assay: whole plant or invertebrate; type: in vivo
# [10] = system: Puccinia graminis (f. sp. tritici Race 15B-2); assay: whole plant or invertebrate; type: in vivo; conditions: 336 h, read-out: % control WSR
# Pseudomonas fluorescens [11] = assay: Speed of Kill Test, alternate, 24 h, synthetic hard water (Table 4); type: cell-based; conditions: Ps.fl in synthetic hard water, 100 ppm
# [12] = Pseudoperonospora cubensis, in Cucumis sativus, 168 h, read-out: % control CDM
# [13] = Blumeria graminis, read-out: % control WPM
# [14] = Puccinia recondita, 240 h, read-out: % control WLR
# [15] = Pyricularia oryzae, read-out: % control RB
# [16] = Table 3, broth two-fold serial dilution
# [17] = Table 3, Ps.fl in synthetic hard water, 4 hours, 30° C
Compound,MIC (A.n) [µg/mL],"pest or weed control at 200 ppm [3, 12] [%]",MIC (Aspergillus niger (A.n)) [µg/mL],MIC (Pseudomonas fluorescens [6]) [µg/mL],pest or weed control at 200 ppm (Piricularia oryzae; [15]) [%],MIC [8] [µg/mL],"MIC [1, 16] [µg/mL]","MIC [2, 16] [µg/mL]",MBC (ps.fl bacteria; [17]) [µg/mL],"MIC [4, 16] [µg/mL]","pest or weed control at 300 ppm [5, 13] [%]",MIC (Escherichia coli (E.c); [16]) [µg/mL],also measured
"CCCCCCCCNC(=O)/C=C\SC(C(=O)NCCCCCCCC)C(=O)OCC (stereo not drawn) [Example 18, N-n-octyl-cis-3-[2-(ethyl-N-n-octylmalonamido)thio]acrylamide]",> 500,97,< 4,> 500,25,> 500,,,,,,,"MIC [1]: < 4 µg/mL; MIC [2]: 8 µg/mL; MBC (ps.fl bacteria; 4 h): 16 µg/mL; MIC [4]: < 4 µg/mL; pest or weed control at 200 ppm (Phytophthora infestans): 92%; pest or weed control at 200 ppm [5, 13]: 0%; MIC (Escherichia coli (E.c)): 250 µg/mL; pest or weed control at 200 ppm [7, 14]: 74%; pest or weed control at 300 ppm ([9]; 120 h, read-out: % control RSB): 90%"
"CCCCCCCCNC(=O)/C(Cl)=C(/Cl)SC(C(C)=O)C(C)=O [Example 2, N-n-octyl-2,3-dichloro-cis-3-[3-(2,4-pentanedionyl)thio]acrylamide]",> 500,,8,> 500,,< 4,< 4,< 4,> 500,> 500,78,> 500,"pest or weed control at 150 ppm [10]: 85%; pest or weed control at 300 ppm [3, 12]: 85%; pest or weed control at 300 ppm (Phytophthora infestans): 10%; pest or weed control at 300 ppm (Piricularia oryzae; [15]): 0%; pest or weed control at 300 ppm ([9]; 120 h, read-out: % control RSB): 0%"
"CCCCCCCCNC(=O)/C=C\SC(C(C)=O)C(C)=O [Example 1, N-n-octyl-cis-3-[3-(2,4-pentanedionyl)thio]acrylamide]",> 500,100,8,> 500,98,< 4,< 4,< 4,> 500,> 500,25,> 500,pest or weed control at 100 ppm [10]: 50%; pest or weed control at 200 ppm (Phytophthora infestans): 100%
"CCCCCCCCNC(=O)/C=C\SC(C(=O)NCc1cccnc1)C(=O)OCC (stereo not drawn) [Example 49, N-n-octyl-cis-3-{2-[ethyl-N-((3-pyridyl)methyl)malonamido]thio}acrylamide]",,,< 4,,,< 4,< 4,< 4,> 500,> 500,,> 500,"pest or weed control at 100 ppm [3, 12]: 85%; pest or weed control at 100 ppm (Phytophthora infestans): 90%; pest or weed control at 100 ppm [5, 13]: 50%; pest or weed control at 100 ppm [7, 14]: 0%; pest or weed control at 100 ppm (Piricularia oryzae; [15]): 0%; pest or weed control at 100 ppm ([9]; 120 h, read-out: % control RSB): 0%"
"CCCCCCCCNC(=O)/C=C\SC(C(=O)OCC)C(=O)c1ccccc1 (stereo not drawn) [Example 69, N-n-octyl-cis-3-[2-(ethoxy-3-phenyl-3-oxopropanoyl)thio]acrylamide]",,,125,,,32,,,,,,,MIC [1]: < 4 µg/mL; MIC [2]: 16 µg/mL; MBC (ps.fl bacteria; 4 h): > 500 µg/mL; MIC [4]: > 500 µg/mL; MIC (Escherichia coli (E.c)): 500 µg/mL
"CCCCCCCCNC(=O)/C=C\SC(C(=O)Nc1cc(C)ccc1Cl)C(=O)OCC (stereo not drawn) [Example 42, N-n-octyl-cis-3-{2-[ethyl-N-(2-chloro-5-methylphenyl)malonamido]thio}acrylamide]",,,< 4,,,> 500,16,8,125,8,,500,pest or weed control at 100 ppm (Phytophthora infestans): 91%
"CC(=O)C(S/C(Cl)=C(/Cl)C(=O)NC1CCCCC1)C(C)=O [Example 6, N-cyclohexyl-2,3-dichloro-cis-3-[3-(2,4-pentanedionyl)thio]acrylamide]",> 500,85,125,> 500,70,32,< 4,16,> 500,> 500,0,500,"pest or weed control at 300 ppm [10]: 0%; pest or weed control at 300 ppm (Phytophthora infestans): 0%; pest or weed control at 200 ppm ([9]; 120 h, read-out: % control RSB): 0%"
N-n-octyl-cis-3-[2-(N-benzyl-N'-n-octylmalonodiamido)thio]acrylamide [Example 61],,,,,,,,,,,,,SOK (Pseudomonas fluorescens [11]): > 100 ppm; MIC A.n (A.n): > 250 ppm; % control CDM ([3]; in vivo): 99%; % control TLB (Phytophthora infestans; 100 ppm application rate): 0%; % control WPM ([5]; in vivo): 0%; MIC Ps.fl (Pseudomonas fluorescens [6]): > 250 ppm; % control WLR ([7]; in vivo): 0%; % control RB (Piricularia oryzae; in vivo): 0%; % control RSB ([9]; in vivo): 0%
